Test results: patent US5891435A, “Methods and compositions for delaying or preventing the onset of autoimmune disease” (Research Corporation Technologies, Inc., priority 1993, dated 1999)
Entries after “also recorded” stand apart in the source; their conditions may differ.

Key:
[1] = tested on: NOD mice; experiment: Subcutaneous immunization in IFA, development of diabetes in NOD mice; assay type: in vivo, mouse; details: for Protective effect against diabetes (in words): subcutaneous immunization in IFA; for IDD rate (frequency of diabetes): subcutaneous immunization in IFA from 4 weeks of age, FIG. 1
Text: NOD/Uf mice (Winter [1990] Diabetes 39:975-982) were bred and maintained in the temperature and light controlled facility of the Department of Pathology at the University of Florida. After weaning at 3-4 weeks of age, littermates were housed in groups of no more than 6 per cage. A soy and […]-based chow (Harlan, Madison, Wis.) and water were available ad libitum. Typical diabetes rates in the NOD/Uf colony at 40 weeks of age are near 90% in females and 30% in males. Littermates were divided into 3 groups. […] Complete Freund's adjuvant was avoided because of its known protective effect in NOD mice (Qin et al. [1993] J. Immunol. 150:2072-2080). […] Treatments started at 4 weeks of age and subsequent immunizations were administered at ages 12, 16, and 22 weeks. […] In addition, 2 new treatments were assessed. […] As in the first study, immunizations were given in IFA commencing at 4 weeks of age, but subsequent injections were given at 8 week intervals. In a third NOD mouse experiment, controlled by 18, 0.9% saline+IFA-treated littermates (10 female and 8 male), 18 mice received 250 μg BSA (Sigma) in IFA (10 female and 8 male). A third group of 21 littermates was treated with 100 μg of the 17 amino acid component peptide of BSA called ABBOS in IFA (11 female and 10 male). This peptide has been proposed as an environmental molecular mimic of an endogenous islet protein. Venous blood samples, obtained from the tail vein or retro-orbital sinus were tested serially for glucose and IAA. Blood glucose was determined using a Chemstrip bG (Boehringer Mannheim) read visually as verified by a reflectance meter. Diabetes was diagnosed when the whole blood glucose level was greater than 240 mg/dl (13.3 mmol/L). A liquid phase competitive radiobinding assay using 1:3 diluted mouse sera was used to determine IAA […] al. [1987] Diabetes 36:1286-1291). Normal murine levels, established from a survey of 48 mice from six different strains that were not susceptible to spontaneous diabetes were considered to be below 180 nU/ml (3 standard deviations above mean). The method of Kaplan and Meier (Kaplan and Meier [1958] J. Am. Stat. Assoc. 53:457-481) was used to construct life tables and the logrank Chi-square statistic was used to compare them (Mantel, N. (1966) Cancer Chemother. Rep. 50:163-170). A Student t-test or one-way ANOVA was used when appropriate to compare means. Fisher's exact test was applied to compare frequencies in the adoptive transfer studies.

[2] = tested on: NOD mice; experiment: Insulitis score / pancreatic histology of immunized NOD mice; assay type: in vivo, mouse; details: NOD mice immunized subcutaneously in IFA; non-diabetic survivors at 40 weeks
Procedure: (§1) Non-diabetic mice in the subcutaneous immunization protocol that survived to 40 weeks were sacrificed at that age. Their pancreata were removed, fixed in 10% formalin and stained for light microscopic examination with hematoxylin and eosin. The slides were coded and a consensus insulitis score was determined by 3 examiners before the code was broken. The presence of insulitis was scored using a previously described dual scale that assesses both the severity of immune infiltration and the cytoarchitectural disruption. Finally, the pancreata from the modulator cell donors in the adoptive transfer studies were similarly reviewed at 10 weeks of age. Pancreata from 8 of 10 recipients (only 2 of 4 mice receiving B chain modulator cells were sacrificed) were analyzed 20 days after their adoptive transfer.

[3] = tested on: NOD mice; details: cited from earlier work
[4] = tested on: irradiated NOD recipients; experiment: Adoptive co-transfer of splenocytes from immunized and acutely diabetic NOD mice to irradiated NOD recipients; assay type: in vivo, mouse; details: for Transfer of protection by splenocytes of immunized mice (in words): irradiated NOD recipients, adoptive co-transfer
Text: At age 10 weeks, splenocyte pools were obtained from these mice, each pool comprising cells from 3 similarly treated animals. These "modulator" splenocytes were mixed with an equal number of pooled splenocytes that had been harvested from 6 untreated, acutely diabetic NOD mice. Six hours after a 700 Rad dose of γ-irradiation, 10 previously untreated, non-diabetic, 10 week old male NOD mice received an intravenous infusion containing a total of 40×10^6 cells from one of the mixtures, i.e. 3 diluent-, 3 A chain-, and 4 B chain-treated animals.
(§2) Venous blood samples, obtained from the tail vein or retro-orbital sinus were tested serially for glucose and IAA. Blood glucose was determined using a Chemstrip bG (Boehringer Mannheim) read visually as verified by a reflectance meter. Diabetes was diagnosed when the whole blood glucose level was greater than 240 mg/dl (13.3 mmol/L). A liquid phase competitive radiobinding assay using 1:3 diluted mouse sera was used to determine IAA titer (Vardi et al. [1987] Diabetes 36:1286-1291). Normal murine levels, established from a survey of 48 mice from six different strains that were not susceptible to spontaneous diabetes were considered to be below 180 nU/ml (3 standard deviations above mean).
as §1
The method of Kaplan and Meier (Kaplan and Meier [1958] J. Am. Stat. Assoc. 53:457-481) was used to construct life tables and the logrank Chi-square statistic was used to compare them (Mantel, N. (1966) Cancer Chemother. Rep. 50:163-170). A Student t-test or one-way ANOVA was used when appropriate to compare means. Fisher's exact test was applied to compare frequencies in the adoptive transfer studies. P-values are 2-sided.

[5] = tested on: insulin antibodies; experiment: Insulin antibodies (IAA) in serum of immunized NOD mice, competitive radiobinding assay; assay type: in vivo, mouse; details: NOD mice immunized subcutaneously in IFA
Procedure: Littermates were divided into 3 groups. […] Complete Freund's adjuvant was avoided because of its known protective effect in NOD mice (Qin et al. [1993] J. Immunol. 150:2072-2080). […] Treatments started at 4 weeks of age and subsequent immunizations were administered at ages 12, 16, and 22 weeks. […] In addition, 2 new treatments were assessed. […] As in the first study, immunizations were given in IFA commencing at 4 weeks of age, but subsequent injections were given at 8 week intervals. In a third NOD mouse experiment, controlled by 18, 0.9% saline+IFA-treated littermates (10 female and 8 male), 18 mice received 250 μg BSA (Sigma) in IFA (10 female and 8 male). A third group of 21 littermates was treated with 100 μg of the 17 amino acid component peptide of BSA called ABBOS in IFA (11 female and 10 male).
as §2

[6] = irradiated male NOD recipients of splenocytes from treated donors plus diabetic donors, diabetic/total

| Substance | Protective effect against diabetes (in words) [1] | IDD rate (frequency of diabetes) [1] | Insulitis / pancreatic histology (in words) [2] | Number of Diabetic Mice, Day 10 [4, 6] | Number of Diabetic Mice, Day 20 [4, 6] | Insulin antibody level / insulin binding activity in serum (in words) [5] | further results |
| --- | --- | --- | --- | --- | --- | --- | --- |
| bovine serum albumin [BSA, reference compound] | had no protective effects |  |  |  |  |  |  |
| insulin: purified porcine NPH insulin (first study) or recombinant human NPH insulin (second study, FIG. 1), given subcutaneously in incomplete Freund's adjuvant [reference compound] | significantly reduced the incidence of diabetes; also recorded: strong protection for diabetes was achieved; also recorded: significantly reduce the incidence of IDD; also recorded: excellent protection against IDD | under 13% | incidence and severity of insulitis were little affected, or actually increased; also recorded: not significantly reduced; also recorded: neither insulin nor B chain immunizations diminished insulitis |  |  |  | Protection from hyperglycemia and insulitis (in words) ([3]; extended prophylactic course of daily subcutaneous injections, NOD mice (Atkinson et al. 1990)): protected NOD mice from both hyperglycemia and islet infiltration by mononuclear leukocytes (insulitis); Response to oral insulin (in words) ([3]; oral, NOD mice (Zhang et al. 1991)): beneficial response |
| glutamic acid decarboxylase [human GAD65] | onset of diabetes has been delayed |  |  |  |  |  |  |
| B chain: recombinant human B chain insulin, given in IFA | resulted in protection from diabetes; also recorded: protection conferred by subcutaneous insulin immunization was duplicated; also recorded: all of the protection was localized to the B chain | 16% | neither insulin nor B chain immunizations diminished insulitis | 0/4 | 0/4 | stimulated high levels of insulin antibodies; also recorded: high insulin binding activity in serum | Time for which diabetes was prevented after co-transfer ([4]; co-transfer of splenocytes from treated and acutely diabetic mice, p=0.03): at least 75 days; Transfer of protection by splenocytes of immunized mice (in words) [4]: able to confer the protective effect on irradiated NOD recipients; Transfer of protection by splenocytes of immunized mice (in words) ([4]; listed as B chain of insulin): able to protect irradiated, recipient mice; Number of Diabetic Mice, Day 75 [4, 6]: 0/2; Protective effect against diabetes (in words) ([1]; listed as B chain of insulin): reproduced the protective effect of insulin; also recorded: excellent protection against IDD; Protective effect against diabetes (in words) ([1]; listed as insulin B chain): protection equal or superior to that conferred by intact insulin |
| A chain: recombinant human A chain insulin, given in IFA | had no protective effects | 53% |  | 0/3 | 3/3 | high insulin binding activity in serum | Protective effect against diabetes (in words) ([1]; listed as A chain insulin): did not however alter the course of IDD; Insulin antibody level / insulin binding activity in serum (in words) ([5]; listed as A): stimulated high levels of insulin antibodies |
